Measurements: patent publication US11298314B2, “Injectable composition for localized fat reduction without pain, edema, and side effects, and method for preparing same” (AMI PHARM CO., LTD., priority 2017, dated 2022)
“Also recorded” adds a separate entry of the source.

Columns and labels:
[1] = system: Caspase 3 in 3T3-L1 adipocytes; test: Caspase 3 activity assay; format: cell-based
Protocol: The Caspase 3 activity assay was performed with the test materials to determine whether the cell death in the result of MTT assay was due to necrosis or apoptosis. The Caspase 3 specifically increases when apoptosis occurs and is a marker of apoptosis. […] The cells were then treated with 50 ul of cell lysis buffer (10 mM Tris-HCl, 10 mM NaH2PO4/NaHPO4, pH 7.5, 130 mM NaCl, 1% Triton X-100 and 10 mM sodium pyrophosphate) and left at 4° C. for […]. The supernatant was collected by centrifugation at 1000× rpm for 1 minute, and protein quantification was performed by BCA method. The 50 μl of reaction buffer (4 mM HEPES, pH 7.5, 10% glycerol, 2 mM dithiothreitol) and 0.5 μl of 4 mM DEVD-p-NA were added to each sample and reacted at 37° C. for 1 hour. Then wavelength was measured with a […] at 405 nm.

[2] = system: 3T3-L1 adipocytes; test: Lipolysis assay (glycerol release); format: cell-based; details: 48 hours; listed as DCA single
Protocol: The glycerol activity assay was performed with the test materials to determine whether the cell death in the MTT assay was due to necrosis or lipolysis. Glycerol is a specific marker that increases when fat breaks down. Abcam Lipolysis Assay Kit (Colorimetric) was used according to the manufacturer's manual, and the method of the test was as follows: […] And then the lysis was induced. […] After adding the glycerol assay complex (50 μl) thereto, the solution was incubated at room temperature for 30 minutes. Absorbance was measured at OD 570 (using standard curve for absolute determination).

[3] = system: paw of the rats; test: Rat paw edema; format: in vivo, Sprague Dawley rats; details: for degree of edema in words: 2 hours after administration, rat paw; for degree of edema, 1 hour after administration / degree of edema, 2 hours after administration / degree of edema, Immediately after administration: 0.1 ml into rat paw
In short: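 Male Sprague Dawley rats (6 weeks old, 170–200 g) received 0.1 ml of PBS or test composition into the paw. Paw thickness measured by caliper before, immediately after, and 1 or 2 h post-injection; edema graded 0–4, with injection-site skin lesions photographed.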

[4] = system: inguinal fat pad; details: 0.2 ml s.c. once into inguinal fat pad, 8 days post-injection; listed as DCA single composition
[5] = system: tissues of the injected area (rat paw); test: H&E staining histological test (inflammation) of injected rat paw; format: in vivo, Sprague Dawley rats; details: bile acid single composition 1.0% (w/v), injected rat paw
Protocol: The tissues of the injected area were dissected, fixed with 10% formalin, and then the specimen was prepared and images were captured using an optical microscope. The degree of inflammation was evaluated as follows.

[6] = Formulation stability of PPC injectable preparations: property, transparency, particle size, pH; details: based on PPC 5.0%
[7] = system: sole of the rat paws; test: Measurement of skin lesion (erythema) on rat paw; format: in vivo, Sprague Dawley rats; details: for skin lesion (erythema) in words: 2 hours after administration;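 for grade of skin lesion (erythema), 1 hour after administration: grades − to ++++ mean no to extremely severe erythema versus before injection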;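 for grade of skin lesion (erythema), 2 hours after administration: grades − to ++++ mean no to extremely severe erythema versus before injection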;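 for grade of skin lesion (erythema), Immediately after administration: grades − to ++++ mean no to extremely severe erythema versus before injection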
In short: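 Male Sprague Dawley rats (6 weeks, 170–200 g) received 0.1 ml test composition or PBS injected into the paw. Paw thickness measured by caliper before, immediately after, and 1 or 2 h post-injection; sole lesions photographed and graded 0–4.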

[8] = bile acid single composition 1.0% (w/v)
[9] = bile acid single composition 2.5% (w/v)
[10] = bile acid single composition 5.0% (w/v)
[11] = bile acid single composition 7.5% (w/v)

caspase-3 activity ([1]; after 48 hours): returned to pretreatment levels
caspase-3 activity ([1]; up to 24 hours): some caspase-3 activity
degree of edema in words ([3]; listed as DCA 1.0%): severe
degree of edema in words ([3]; listed as DCA 2.5%): “severe” and “extremely severe”
inflammation at the site of administration, dermal and epidermal tissues [4]: severe inflammation was induced
Inflammation (H&E), BA % (w/v) 1.0 [5]: +++
bile acid concentration at which stable injectable preparations can be made [6]: ≥ 2.1%
skin lesion (erythema) in words ([7]; listed as DCA 1.0%): Moderate
skin lesion (erythema) in words ([7]; listed as DCA 2.5%): “severe” and “extremely severe”
grade of skin lesion (erythema), 1 hour after administration [7, 8]: ++
grade of skin lesion (erythema), 2 hours after administration [7, 8]: ++
grade of skin lesion (erythema), Immediately after administration [7, 8]: ++
grade of skin lesion (erythema), 1 hour after administration [7, 9]: ++++
grade of skin lesion (erythema), 2 hours after administration [7, 9]: +++
grade of skin lesion (erythema), Immediately after administration [7, 9]: ++
grade of skin lesion (erythema), 1 hour after administration [7, 10]: ++++
grade of skin lesion (erythema), 2 hours after administration [7, 10]: ++++
grade of skin lesion (erythema), Immediately after administration [7, 10]: ++
grade of skin lesion (erythema), 1 hour after administration [7, 11]: ++++
grade of skin lesion (erythema), 2 hours after administration [7, 11]: ++++
grade of skin lesion (erythema), Immediately after administration [7, 11]: ++
SMILES: C[C@H](CCC(=O)O)[C@H]1CC[C@H]2[C@@H]3CC[C@@H]4C[C@H](O)CC[C@]4(C)[C@H]3C[C@H](O)[C@]12C [DCA, (4R)-4-[(3R,5R,8R,9S,10S,12S,13R,14S,17R)-3,12-dihydroxy-10,13-dimethyl-2,3,4,5,6,7,8,9,11,12,14,15,16,17-tetradecahydro-1H-cyclopenta[a]phenanthren-17-yl]pentanoic acid]
glycerol release / cytolytic activity [2]: slightly higher cytolytic activity than at 24 hours; also recorded: slightly higher cytolytic activity than that of 24 hours
degree of edema, 1 hour after administration [3, 8]: +++ (severe edema [+++, (the degree of swelling was 40-60% compared to before the injection)])
degree of edema, 2 hours after administration [3, 8]: +++ (severe edema [+++, (the degree of swelling was 40-60% compared to before the injection)])
degree of edema, Immediately after administration [3, 8]: ++ (moderate edema [++, (the degree of swelling was 20-40% compared to before the injection)])
degree of edema, 1 hour after administration [3, 9]: ++++ (extremely severe edema [++++, (the degree of swelling was 60% or more compared to before the injection)])
degree of edema, 2 hours after administration [3, 9]: ++++ (extremely severe edema [++++, (the degree of swelling was 60% or more compared to before the injection)])
degree of edema, Immediately after administration [3, 9]: ++ (moderate edema [++, (the degree of swelling was 20-40% compared to before the injection)])
degree of edema, 1 hour after administration [3, 10]: ++++ (extremely severe edema [++++, (the degree of swelling was 60% or more compared to before the injection)])
degree of edema, 2 hours after administration [3, 10]: ++++ (extremely severe edema [++++, (the degree of swelling was 60% or more compared to before the injection)])
degree of edema, Immediately after administration [3, 10]: ++ (moderate edema [++, (the degree of swelling was 20-40% compared to before the injection)])
degree of edema, 1 hour after administration [3, 11]: ++++ (extremely severe edema [++++, (the degree of swelling was 60% or more compared to before the injection)])
degree of edema, 2 hours after administration [3, 11]: ++++ (extremely severe edema [++++, (the degree of swelling was 60% or more compared to before the injection)])
degree of edema, Immediately after administration [3, 11]: ++ (moderate edema [++, (the degree of swelling was 20-40% compared to before the injection)])
